Reference: patent US7166625B2, “Method for treating fibrotic diseases and other indications” (Alteon, Inc., priority 2000, dated 2007)
Where a name gives a salt, the structure may show the parent alone.

How the values were obtained:
[1] = literature series of mainly imidazolium compounds; cited from earlier work
[2] = test system: rodents, canines and primates; test: In vivo studies of vascular stiffening and collagen mass in cardiovascular tissues
Text: (§1) Cardiovascular risk correlates more closely with the systolic and the pulse pressure than with the diastolic pressure. In diabetic patients, the cardiovascular risk profile of diabetic patients is strongly correlated to duration of diabetes, glycemic control and blood pressure. Structural matrix proteins contribute to the function of vessels and the heart, and changes in the physical behavior of cardiovascular walls are believed to be important determinants of circulatory function. In elderly individuals, the loss of compliance in the aorta leads to isolated systolic hypertension, which in turn expands the arterial wall and thereby diminishes the dynamic range of elasticity. […] Treatment with 3-[2-phenyl-2-oxoethyl]-4,5-dimethyl-thiazolium salt lead to a reduction in the mass of collagen in cardiovascular tissues.

TGFbeta = test: In situ hybridization studies, TGFbeta expression
Text: as §1

Type IV collagen = test: In situ hybridization studies, Type IV collagen expression
Text: as §1

dog model for diabetes = test: Dog model for diabetes, ventricular elasticity; format: in vivo
Text: as §1

Rats = test: Rat myocardial infarct after ligation of the left anterior descending coronary artery; format: in vivo; details: 10 mg/kg daily intraperitoneal, 30 days before and 14 days after coronary ligation
Description: Rats received a daily intraperitoneal dose of 10 mg/kg 3-[2-phenyl-2-oxoethyl]-4,5-dimethyl-thiazolium salt (compound A) (n=14) or placebo (n=15) for 30 days. The animals then underwent a thoracotomy and the left anterior descending coronary artery ligated. The chest was then closed and the animals allowed to recover for 14 days while continuing to be treated with compound A or placebo. The animals were then sacrificed and the hearts removed for histological examination. The weight of the infarcted tissue was 0.16±0.04 g for the placebo treated animals compared to 0.11±0.05 g for the compound A treated animals (p=0.04).

[3] = test system: elderly patients with pulse pressures greater than 60 mm Hg; test: Phase IIa clinical trial; format: in vivo, human
Text: When the heart pumps blood into the vascular system, the ability of the arteries to expand helps to push blood through the body. When arteries become stiff, as they do in the natural process of aging, the ability of the arteries to expand is diminished and also has consequences for the heart. The heart has to work harder to pump the blood into the stiff arteries, and eventually hypertrophies (enlarges in size) to accomplish this. A hypertrophied heart is an inefficient pump, and is one of the disorders that leads to congestive heart failure. […] The potential clinical benefit of this is to lessen the effort that the heart must expend to push blood throughout the body. The effect is also believed to contribute to preventing hypertrophy and subsequent inefficiency of the heart, which inefficiency would contribute to congestive heart failure.
Atherosclerosis is a disease that involves deposition of blood lipids in plaque in the arteries throughout the body. In coronary arteries, accumulation of plaque progressively leads to reduced coronary flow, with occlusion of the arteries causing focal death of cardiac tissue (myocardial infarction, heart attack). If the amount of tissue that dies is large enough, death ensures. In a Phase IIa trial, one compound believed to work by a mechanism shared by the compounds of the invention, 3-[2-phenyl-2-oxoethyl]-4,5-dimethyl-thiazolium salt, […] the amount of circulating triglycerides (lipids). […] Reducing local deposits of plaque should eventually lessen the risk of myocardial infarction and death due to heart attacks.
Pulse pressure is the difference between systolic and diastolic blood pressure. In a young human, systolic pressure is typically 120 mm Hg and diastolic pressure is 80 mm Hg, resulting in a pulse pressure of 40 mm Hg. With age, in many individuals pulse pressure increases, largely due to the increase in systolic pressure that results from stiff vessel disease. In individuals with pulse pressure greater than 60 mm Hg there is an increased risk of death from cardiovascular morbidities.

## 3-[2-(3,5-Dimethoxyphenyl)-2-oxoethyl]-oxazolium
[1]
  glucose lowering effect: inactive

## Cc1sc[n+](CC(=O)c2ccccc2)c1C [compound A, 3-[2-phenyl-2-oxoethyl]-4,5-dimethyl-thiazolium salt]
[2]; in vivo
  mass of collagen in cardiovascular tissues: reduction
[2]; in vivo studies in rodents, canines and primates
  vascular stiffening: substantially ameliorating vascular stiffening
TGFbeta
  expression of TGFbeta: reduces
Type IV collagen
  expression of Type IV collagen: reduces
Dog model for diabetes
  end diastolic pressure and end diastolic volume, indicators of ventricular elasticity: returned to a value at about the mid-point between the disease impaired value and the value for control dogs
Rats; p=0.09 vs placebo
  thickness of the ventricular wall in the infarcted zone: 2.56±0.22 mm
Rats; placebo 0.16±0.04 g, p=0.04
  weight of the infarcted tissue: 0.11 ± 0.05 g
[3]; Phase IIa clinical trial
  stiffness of arteries, measured by the ratio of stroke volume (ml) to pulse pressure (mm Hg): reverse the stiffness of arteries
[3]; Phase IIa trial
  amount of circulating triglycerides (lipids): increased
[3]; Phase IIa trial, elderly patients with pulse pressures greater than 60 mm Hg, statistically significant
  pulse pressure: reduced
